Measurements as given in patent US5986131A, “RXR selective ligands” (Hoffmann-La Roche Inc., priority 1997, dated 1999).

Legend:
RXRα [1] = biological target: T1, RXRα (Homo sapiens, UniProt P19793); assay: RXRα binding; conditions: Table 2
T1 sequence (P19793 1-462): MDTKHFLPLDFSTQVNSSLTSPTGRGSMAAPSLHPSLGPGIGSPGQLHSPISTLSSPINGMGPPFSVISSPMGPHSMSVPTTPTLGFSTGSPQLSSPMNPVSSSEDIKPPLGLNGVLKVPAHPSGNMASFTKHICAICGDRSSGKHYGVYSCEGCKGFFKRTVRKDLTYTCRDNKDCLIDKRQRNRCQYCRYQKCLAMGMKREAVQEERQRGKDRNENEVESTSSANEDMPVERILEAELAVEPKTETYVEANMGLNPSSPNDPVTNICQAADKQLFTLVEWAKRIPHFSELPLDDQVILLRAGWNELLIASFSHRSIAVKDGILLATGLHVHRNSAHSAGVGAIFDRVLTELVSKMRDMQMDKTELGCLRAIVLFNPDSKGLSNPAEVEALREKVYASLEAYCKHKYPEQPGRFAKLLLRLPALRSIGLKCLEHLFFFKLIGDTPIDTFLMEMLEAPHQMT
Source text: (§1) Methods essentially as described in those publications were used to determine the binding and transactivation properties of retinoids reported in the Examples herein.

RARα = biological target: T2, RARα (Homo sapiens, UniProt P10276); assay: RARα binding; conditions: Table 2; read-out: RARα binding IC50
T2 sequence (P10276 1-462): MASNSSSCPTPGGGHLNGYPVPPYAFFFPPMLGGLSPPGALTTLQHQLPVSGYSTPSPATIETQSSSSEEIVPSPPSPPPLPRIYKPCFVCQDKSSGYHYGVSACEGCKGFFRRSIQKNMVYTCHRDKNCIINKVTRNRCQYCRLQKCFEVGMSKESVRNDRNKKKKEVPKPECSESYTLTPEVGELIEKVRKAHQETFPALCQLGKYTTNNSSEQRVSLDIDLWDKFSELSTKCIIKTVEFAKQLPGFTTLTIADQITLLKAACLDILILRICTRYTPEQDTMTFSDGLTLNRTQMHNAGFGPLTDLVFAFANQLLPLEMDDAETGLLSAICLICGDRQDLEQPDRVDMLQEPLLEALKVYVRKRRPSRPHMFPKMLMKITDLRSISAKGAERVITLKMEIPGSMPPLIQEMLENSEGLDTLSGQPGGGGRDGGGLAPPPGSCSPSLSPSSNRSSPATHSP
Source text: as §1

RXRα [2] = biological target: T1, RXRα; assay: RXRα activation (transactivation); assay type: cell-based; conditions: Table 1; read-out: Activation ED50, RXRα
Source text: as §1

[3] = tested on: Hamster Ear Sebaceous Gland; assay: Effect on size of sebaceous glands of Golden Syrian hamsters; assay type: in vivo; design: Sebaceous Gland Size: unit not given here; conditions: 4 weeks topical dosing
Procedure: Charles River Golden Syrian male hamsters were given the desired dose in acetone. The compounds were stored at 4° C. protected from light. Fresh solutions were made up weekly.
Hamsters were dosed daily for five days, rested for two days, and dosed again for five days until 20 doses were given. The volume of solution was 50 microliters per ear.
Hamsters were sacrificed by CO2 inhalation, and the ears removed for histological evaluation. One ear was removed and the ventral surface separated from the rest of the ear. A 2 mm punch was removed 5 mm from the tip of the ear and stained in 0.1 % Sudan Black B dissolved in 100% propylene glycol overnight. After destaining, the size of sebaceous glands was quantified with a Donsanto Image Analysis System.
Data are given as the average area of 80-120 sebaceous glands per dose, as percent of the control (solvent-treated) sections.

Rhino mouse utricles = assay: Rhino mouse utricle reduction activity; assay type: in vivo, Rhino mice; conditions: topical; for Utricle Size: 3 weeks; for Utricle size % Change from Control: ns = not statistically significant, others p<0.05
Procedure: Compounds were dissolved in 100% acetone and stored at 4° C. for the duration of the experiment under nitrogen. […] One day after the last dose, the mice were sacrificed by CO2 inhalation. […] The epidermis was then separated from the dermis.
The samples were kept in each of the above solutions for 2 hours. The skin samples were removed from the xylene and mounted on glass microscope slides. Image analysis, using the Ultimage image analysis software, was used to determine the mean diameter and area of utricles. Approximately 5 fields per sample were examined, for an average of 150 utricles per mouse measured.

HL-60 cells = assay: HL-60 differentiation (NBT reduction); assay type: cell-based, human
Procedure: Under the influence of retinoids, HL-60 cells (a human myeloid leukemia cell line) differentiate into granulocytes. This differentiation of HL-60 cells into granulocytes is mediated by RARα, and so provides the basis for the use of retinoids to treat leukemia.
Retinoid-induced differentiation of HL-60 cells was assayed by measuring their oxidative burst potential via the reduction of NBT (Nitroblueterstazolium) [Pick et al., J. Reticuloendothelial Soc., 30:581-593 (1981)].
HL-60 cells were maintained in RPMI 1640 medium supplemented with 10% FCS, 2mM L-glutamine, ImM sodium pyruvate, 1% non-essential amino acids, 50 U/ml penicillin and 50 μg/ml streptomycin (=RPMI/FCS).
30,000 cells/[…] of RPMI/FCS were seeded into flat-bottomed microtiter wells. 10 μl of retinoids diluted in complete medium were added at the same time to yield final concentrations betweeen 10^-11 and 10^-6 M (stock solutions of 10^-2 M in ethanol were kep at -20° C. and protected from light). After 3 days, the medium was removed with a multichannel pipette and replaced with 100 μl of NBT solution (1 mg/ml in PBS with 200 nM phorbol myristate acetate (PMA). Following an additional hour incubation at 37° C. the NBT solution was removed and 100 μl of 10% SDS in 0.01 N HCl was added. The amount of the reduced NBT was quantified photometrically at 540 nm using an automated plate reader. The mean of 3 wells was calculated. S.E.M. were between 5 and 10%.

CC1=C(/C=C/C2=C(/C=C/C(C)=C/C(=O)O)CCCC2)C(C)(C)CCC1 [Example 4, (2E,4E)-3-Methyl-5-(2-((E)-2(2,6,6-trimethyl-1-cyclohexen-1-yl)ethenyl)-1-cyclohexen-1-yl)-2,4-pentadienoic acid]
IC50 (RXRα [1]): 92 nM
IC50 (RARα): > 10000 nM
EC50 (RXRα [2]): 1.7 nM
Sebaceous Gland Size ([3]; 1 μg/day): 13237 ± 1491
Sebaceous gland size % Change from Control ([3]; 1 μg/day, ns = not statistically significant): -20%
Sebaceous Gland Size ([3]; 10 μg/day): 17046 ± 4667
Sebaceous gland size % Change from Control ([3]; 10 μg/day, ns = not statistically significant): +3%
Sebaceous Gland Size ([3]; 100 μg/day): 13043 ± 1577
Sebaceous gland size % Change from Control ([3]; 100 μg/day): -21%
Utricle Size (Rhino mouse utricles; 0.1 μg/day): 9843 ± 565 μm^2 / utricle
Utricle size % Change from Control (Rhino mouse utricles; 0.1 μg/day): +1%
Utricle Size (Rhino mouse utricles; 1 μg/day): 9491 ± 507 μm^2 / utricle
Utricle size % Change from Control (Rhino mouse utricles; 1 μg/day): -3%
Utricle Size (Rhino mouse utricles; 10 μg/day): 8951 ± 964 μm^2 / utricle
Utricle size % Change from Control (Rhino mouse utricles; 10 μg/day): -8%
Utricle Size (Rhino mouse utricles; 100 μg/day): 5916 ± 992 μm^2 / utricle
Utricle size % Change from Control (Rhino mouse utricles; 100 μg/day): -39%
activity as inducer of HL-60 differentiation compared with all-trans retinoic acid (HL-60 cells; FIG. 1): clearly less active
HL-60 differentiation activity by itself at potentiating concentrations (HL-60 cells; FIGS. 2 and 3, alone): not active by itself
activity as inducer of HL-60 differentiation (HL-60 cells; ×10^-6 M, alone): virtually inactive
